Patent US11541027B2 (DelMar Pharmaceuticals, Inc., priority 2014, dated 2023)
Entries after “also recorded” stand apart in the source; their conditions may differ.

Key:
[1] = test system: Ovcar-10; assay: 5-day MTT cytotoxicity, wild-type p53 ovarian tumor panel; type: cell-based, human; conditions: Ovcar-10, wt-p53, cisplatin-resistant, N = 3, read-out: DAG IC50 (μM) Mean
Source text: (§1) The ovarian tumor panel lines are as follows: • is A2780; ▪ is 2780-CP16; ▴ is OVCAR-10; ▾ is HEY; and ♦ is OVCA-433. Dose-response curves were undertaken using a 5-day MTT assay to determine cell viability. The A2780 represents a cisplatin-sensitive model, whereas the other four cell lines are cisplatin-resistant. The cell line 2780-CP16 was derived for cisplatin resistance from A2780. The properties of some of these cell lines are disclosed in G. S. Hagopian et al., “Expression of p53 in Cisplatin-Resistant Ovarian Cell Lines: Modulation with the Novel Platinum Analog (1R,2R-Diaminocyclohexane)(trans-diacetato)(dichloro)-platinum(IV),” Clin. Cancer Res. 5: 655-663 (1999), and in Z. H. Siddik et al., “Independent Pathways of p53 Induction by Cisplatin and X-Rays in a Cisplatin-Resistant Cell Line,” Cancer Res. 58: 698-703 (1998), both incorporated herein by this reference.
(§2) The data of FIG. 7 are shown in Table 8 in terms of the IC50 of dianhdrogalactitol in the wild-type p53 human ovarian tumor panel.

[2] = test system: Hey; assay: as above; type: cell-based, human; conditions: wt-p53, cisplatin-resistant, N = 3, read-out: DAG IC50 (μM) Mean
Source text: as §1, §2

[3] = test system: OVCA-433; assay: as above; type: cell-based, human; conditions: OVCA-433, wt-p53, cisplatin-resistant, N = 3, read-out: DAG IC50 (μM) Mean
Source text: as §1, §2

[4] = test system: A2780; assay: as above; type: cell-based, human; conditions: A2780, wt-p53, cisplatin-sensitive, N = 3, read-out: DAG IC50 (μM) Mean
Source text: as §1, §2

[5] = test system: 2780-CP; assay: as above; type: cell-based, human; conditions: wt-p53, cisplatin-resistant, N = 3, read-out: DAG IC50 (μM) Mean
Source text: as §1, §2

[6] = test system: RIF-1 cell-line; assay: Standard syngeneic mouse fibrosarcoma model, tumor growth delay; type: in vivo; conditions: 10 mg/kg, single IP injection, RIF-1 in C3H mice; for Tumor Delay: vs untreated
[7] = test system: NSCLC cell lines other than H460; assay: Cytotoxicity in NSCLC tumor models, range over the cell lines other than H460; type: cell-based, human; conditions: NSCLC cell lines other than H460, single agents
[8] = test system: A549 (TKI-sensitive) human lung adenocarcinoma xenograft tumors; assay: A549 NSCLC xenograft tumor model in female Rag2 mice; conditions: for MTV at Day 68 / Median survival / TCR at Day 68 / TGD / TGI (%): W, F × 3; for MTV at Day 68 / Median survival / TCR at Day 68 / TGD / TGI (%) / number of animals remaining on study on day 70 / day on which a mean tumor volume of 200 mm^3 was observed / day on which a mean tumor volume of 400 mm^3 was reached / doubling time: A549 model; for TCR at Day 68: tumor control ratio; for TGD: tumor growth delay vs untreated control, doubling time 200 to 400 mm^3; for TGI (%): tumor growth inhibition; for day on which a mean tumor volume of 200 mm^3 was observed / day on which a mean tumor volume of 400 mm^3 was reached: days post-inoculation; for doubling time: mean tumor volume 200 to 400 mm^3
Procedure: Rag2 mice bearing subcutaneous human lung adenocarcinoma xenograft tumors of either TKI-resistant (H1975) or TKI-sensitive (A549) origin were treated.
Two human NSCLC cell lines, A549 (TKI-sensitive) and H1975 (TKI-resistant), were used as xenograft tumor models in female Rag2 mice. The mice were 6 to 8 weeks of age and weighed 18-23 grams. 10 mice were used per group.
Cisplatin was used in normal saline at a dose of 5 mg/kg. Administration was intravenous.
Administration was intraperitoneal.
Treatment was initiated at a tumor volume of 100 mm^3 to 150 mm^3.
The cells were started from a frozen vial of lab stock that were frozen down from the ATCC original vial and kept in liquid nitrogen. Cell cultures with a passage number of 3 to 10 and a confluence of 80%-90% were used. […] Cells were subcultured once weekly with a split ratio 1:3 to 1:8 and expanded.
For cell preparation and harvesting for subcutaneous (s.c.) inoculation, the cells were rinsed briefly once with Hanks Balanced Salt Solution without calcium or magnesium. […] The cells were allowed to sit at 37° C. for a few minutes. The cells were observed under an inverted microscope until the cell layer was dispersed, fresh medium was added, 50 μL of cell suspension was taken and mixed with trypan blue (1:1), and the cells were counted and cell viability assessed by using Cellometer Auto T4. The cells were centrifuged at 200×g for 7 minutes and the supernatant was aspirated. The cells were resuspended in growth medium to obtain a concentration of 100×10^6 cells/mL. For inoculation, 5×10^6 cells were used in an injection volume of 50 μL per mouse in 1:1 Matrigel.
On day 0, tumor cells were implanted subcutaneously into mice in a volume of 50 μL in Matrigel using a 28-gauge needle; injection of the tumor cells was in the back of the mice. Mice were randomly assigned to groups based on tumor volume.
For administration, 5 mL of 0.9% sodium chloride for injection, USP (saline) was added to yield a DAG solution with a concentration of 8 mg/mL.
Mice were injected with the required volume to administer the prescribed dose (mg/kg) to the animals based on individual mouse weights using a 28-gauge needle. The injection volume was 200 μL for a 20-g mouse. The mice were briefly (less than 30 seconds) restrained during intravenous injections. Dilation of the vein for intravenous injections was achieved by holding the animals under a heat lamp for a period of between 1-2 minutes.
Mice were individually weighed and injected intraperitoneally according to body weight at the specified injection concentration (see Table 1). The injection volume was based on 200 μL per 20-g mouse. The abdominal surface was wiped down with 70% isopropyl alcohol to clean the injection site.
Tumor growth was monitored by measuring tumor dimensions with calipers beginning on the first day of treatment. Tumor length and width measurements were obtained each Monday, Wednesday, and Friday. Tumor volumes were calculated according to the equation L×W^2/2 with the length (in mm) being defined as the longer axis of the tumor. Animals were weighed at the time of tumor measurement. Tumors were allowed to grow to a maximum of 800 mm^3 before termination.
All animals had blood collected by cardiac puncture at termination for CBC (complete blood count) with differentiation.
In particular, signs of ill-health were based on body weight loss, change in appetite, and behavioral signs such as altered gait, lethargy, and gross manifestations of stress.

[9] = group 5, 6 mg/kg i.p., only 3 of 9 scheduled doses

Substance: dianhydrogalactitol
- IC50 [1]: 3.6 µM
- IC50 [2]: 2.1 µM
- IC50 [3]: 2.3 µM
- IC50 [4]: 0.54 µM
- IC50 [5]: 2.2 µM
- Days to 4 × Median Tumor Size [6]: 11.45 days
- Tumor Delay [6]: 5.16 days
- Tumor Delay ([6]; listed as dianhydrogalactitol): 5.6 days
- IC50 [7]: 900 to 6100 nM
- MTV at Day 68 ([8]; 1.5 mg/kg i.p. M): 440 mm^3
- Median survival ([8]; 1.5 mg/kg i.p. M): 73.5 days
- TCR at Day 68 ([8]; 1.5 mg/kg i.p. M): 0.69
- TGD ([8]; 1.5 mg/kg i.p. M): 9 days
- TGI (%) ([8]; 1.5 mg/kg i.p. M): 32%
- MTV at Day 68 ([8]; 3 mg/kg i.p. M): 303 mm^3
- Median survival ([8]; 3 mg/kg i.p. M): 82 days
- TCR at Day 68 ([8]; 3 mg/kg i.p. M): 0.47
- TGD ([8]; 3 mg/kg i.p. M): 26 days
- TGI (%) ([8]; 3 mg/kg i.p. M): 55%
- body weight / tolerability of the dosage ([8]; 6 mg/kg i.p., treatment stopped after 3 doses, A549 tumor-bearing Rag2 mice): significant body weight loss; also recorded: significant weight loss and morbidity
- number of animals remaining on study on day 70 ([8]; group 3, 1.5 mg/kg i.p. Monday, Wednesday, Friday for 3 weeks): 7/10
- day on which a mean tumor volume of 200 mm^3 was observed ([8]; group 3, 1.5 mg/kg i.p.): 45 days
- day on which a mean tumor volume of 400 mm^3 was reached ([8]; group 3, 1.5 mg/kg i.p.): 67 days
- doubling time ([8]; group 3, 1.5 mg/kg i.p.): 22
- number of animals remaining on study on day 70 ([8]; group 4, 3 mg/kg i.p. Monday, Wednesday, Friday for 3 weeks): 6/10
- day on which a mean tumor volume of 200 mm^3 was observed ([8]; group 4, 3 mg/kg i.p.): 42 days
- day on which a mean tumor volume of 400 mm^3 was reached ([8]; group 4, 3 mg/kg i.p.): 81 days
- doubling time ([8]; group 4, 3 mg/kg i.p.): 39
- number of animals remaining on study on day 70 [8, 9]: 8/10
- day on which a mean tumor volume of 200 mm^3 was observed [8, 9]: 54 days
- hemoglobin (g/L), CBC analysis at termination, versus untreated control ([8]; groups 4 or 5 (3 or 6 mg/kg i.p.), A549 tumor-bearing Rag2 mice): Statistical significance (p<0.05)
